Measured values published in US9705096B2, “Organic transistor, compound, organic semiconductor material for non-light-emitting organic semiconductor device, material for organic transistor, coating solution for non-light-emitting organic semiconductor device, organic semiconductor film for non-light-emitting organic semiconductor device, …” (FUJIFILM Corporation, priority 2014, dated 2017).

Experiment: Solubility in toluene
Assay type: physicochemical
Details: organic solvent or mixture, thermodynamic from solid; 20 mg compound mixed with toluene (1 mL)
Excerpt: A: The compound was completely dissolved.
B: A bit of the compound was left undissolved.
C: Most of the compound was left undissolved.

solubility [mg/mL]	SMILES
< 20	CCc1cc2sc3cc4sc5cc(CC)sc5c4cc3c2s1 [Comparative compound 1, reference compound]
> 20	CC(C)CCCC(C)CCc1cc2sc3cc4sc5cc(CCC(C)CCCC(C)C)sc5c4cc3c2s1 (stereo not drawn) [Compound 31]
> 20	CC(C)CCCC(C)CCc1ccc(-c2cc3sc4cc5sc6cc(-c7ccc(CCC(C)CCCC(C)C)s7)sc6c5cc4c3s2)s1 (stereo not drawn) [Compound 33]
